Experimental data published in article PMC2694132 (Cancer research, 2009).
Numbering of substitutions follows the chain as printed.

Columns and labels:
[1] = molecular target: T1, UGT1A7*4 (UGT1A7p.Trp208Arg) (Homo sapiens, UniProt Q9HAW7, W208R); experiment: SAHA glucuronidation, UGT1A7*4 variant cell homogenate; assay type: in vitro ADME
T1 sequence (Q9HAW7 26-530 W208R): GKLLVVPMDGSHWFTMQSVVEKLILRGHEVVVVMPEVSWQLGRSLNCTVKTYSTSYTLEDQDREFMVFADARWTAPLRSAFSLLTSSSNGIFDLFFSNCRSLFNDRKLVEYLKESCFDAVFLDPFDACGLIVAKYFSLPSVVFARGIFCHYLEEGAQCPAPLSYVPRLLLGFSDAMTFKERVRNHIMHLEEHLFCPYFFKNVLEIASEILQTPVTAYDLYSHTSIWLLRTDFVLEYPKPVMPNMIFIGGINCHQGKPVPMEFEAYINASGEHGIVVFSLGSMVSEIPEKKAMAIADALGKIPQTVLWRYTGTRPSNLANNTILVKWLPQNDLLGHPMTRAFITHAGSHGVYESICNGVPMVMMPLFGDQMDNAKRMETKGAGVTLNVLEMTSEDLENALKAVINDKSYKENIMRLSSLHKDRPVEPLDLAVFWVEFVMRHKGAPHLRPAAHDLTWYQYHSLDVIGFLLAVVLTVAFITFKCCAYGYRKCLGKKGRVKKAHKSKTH

[2] = molecular target: T2, UGT1A8*2 (UGT1A8p.Ala173Gly) (Homo sapiens, UniProt Q9HAW9, A173G); experiment: SAHA glucuronidation, UGT1A8*2 variant cell homogenate; assay type: in vitro ADME
T2 sequence (Q9HAW9 26-530 A173G): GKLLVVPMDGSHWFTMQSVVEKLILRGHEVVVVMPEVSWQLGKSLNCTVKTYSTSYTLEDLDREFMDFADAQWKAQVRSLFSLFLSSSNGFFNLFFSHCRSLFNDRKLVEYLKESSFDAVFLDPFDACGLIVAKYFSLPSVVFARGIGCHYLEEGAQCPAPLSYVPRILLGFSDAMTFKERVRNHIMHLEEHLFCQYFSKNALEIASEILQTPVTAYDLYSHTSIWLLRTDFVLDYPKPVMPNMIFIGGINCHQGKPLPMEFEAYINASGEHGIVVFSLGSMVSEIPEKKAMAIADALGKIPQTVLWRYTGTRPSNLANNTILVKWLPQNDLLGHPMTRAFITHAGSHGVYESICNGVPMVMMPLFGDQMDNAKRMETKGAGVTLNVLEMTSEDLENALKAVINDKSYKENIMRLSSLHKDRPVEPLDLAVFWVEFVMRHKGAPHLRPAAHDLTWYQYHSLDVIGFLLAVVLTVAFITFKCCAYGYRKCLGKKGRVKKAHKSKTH

UGT1A8 = molecular target: T3, UGT1A8 (Homo sapiens, UniProt Q9HAW9); experiment: SAHA glucuronidation, wild-type UGT1A8; assay type: in vitro ADME
T3 sequence (Q9HAW9 26-530): T2 sequence (Q9HAW9 26-530 A173G) with G148A

UGT1A5 = molecular target: T4, UGT1A5 (Homo sapiens, UniProt P35504); experiment: SAHA glucuronidation screen, UGT1A5-overexpressing cell homogenate; assay type: in vitro ADME; conditions: 400 μg UGT-overexpressing cell homogenate, 1-h incubation
T4 sequence (P35504 29-534): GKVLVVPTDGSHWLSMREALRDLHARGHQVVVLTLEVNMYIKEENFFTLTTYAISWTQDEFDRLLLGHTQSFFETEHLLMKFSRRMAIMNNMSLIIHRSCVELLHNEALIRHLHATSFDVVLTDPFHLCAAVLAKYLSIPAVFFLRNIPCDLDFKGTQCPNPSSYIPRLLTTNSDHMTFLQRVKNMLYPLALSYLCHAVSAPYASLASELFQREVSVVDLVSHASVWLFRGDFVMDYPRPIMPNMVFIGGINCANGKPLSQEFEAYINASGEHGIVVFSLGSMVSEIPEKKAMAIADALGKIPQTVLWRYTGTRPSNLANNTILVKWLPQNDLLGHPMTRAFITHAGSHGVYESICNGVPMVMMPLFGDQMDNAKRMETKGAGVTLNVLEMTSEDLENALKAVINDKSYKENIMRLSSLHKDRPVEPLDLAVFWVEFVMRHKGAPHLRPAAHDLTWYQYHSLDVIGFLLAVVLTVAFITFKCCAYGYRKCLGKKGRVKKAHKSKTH

UGT2B15 = molecular target: T5, UGT2B15 (Homo sapiens, UniProt P54855); experiment: SAHA glucuronidation screen, UGT2B15-overexpressing cell homogenate; assay type: in vitro ADME; conditions: 400 μg UGT-overexpressing cell homogenate, 1-h incubation
T5 sequence (P54855 24-530): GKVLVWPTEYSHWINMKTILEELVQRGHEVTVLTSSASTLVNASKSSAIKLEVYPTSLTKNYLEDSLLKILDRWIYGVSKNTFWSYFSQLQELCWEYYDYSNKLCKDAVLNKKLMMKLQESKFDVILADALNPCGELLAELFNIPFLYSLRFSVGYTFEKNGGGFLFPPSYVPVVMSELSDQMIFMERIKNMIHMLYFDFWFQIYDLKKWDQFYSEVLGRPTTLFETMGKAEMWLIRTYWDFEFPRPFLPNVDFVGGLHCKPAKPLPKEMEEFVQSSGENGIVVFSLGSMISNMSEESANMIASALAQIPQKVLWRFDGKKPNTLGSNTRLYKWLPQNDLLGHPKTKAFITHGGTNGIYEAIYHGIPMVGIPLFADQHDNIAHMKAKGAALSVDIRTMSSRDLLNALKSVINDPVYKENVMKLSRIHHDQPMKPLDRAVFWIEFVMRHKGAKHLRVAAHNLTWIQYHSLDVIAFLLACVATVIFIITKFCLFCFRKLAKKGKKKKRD

[3] = patients treated with SAHA; cited from earlier work

**Q.** For `O=C(CCCCCCC(=O)Nc1ccccc1)NO` [SAHA, Suberoylanilide hydroxamic acid], which “difference in glucuronidation activity against SAHA versus wild-type UGT1A7” value ([1]; UGT1A7 variants) is on record?
**A.** The value was “No significant difference”.

**Q.** What about the Km at 1 h ([1]; human, pH 7.5) of the same molecule?
**A.** Its Km at 1 h is 2200 ± 500 µM.

**Q.** And the “decrease in glucuronidation activity against SAHA compared with wild-type UGT1A8” value ([2]; UGT1A8p.Ala173Gly variant, P < 0.005)?
**A.** Its value is 3 fold.

**Q.** And the Km at 1 h ([2]; human, UGT1A8*2 variant-overexpressing cell homogenate, pH 7.5)?
**A.** Its Km at 1 h is 3000 ± 700 µM.

**Q.** What about the “glucuronidation against SAHA (screen)” value (UGT1A8; 400 μg UGT-overexpressing cell homogenate, 1-h incubation) of the same molecule?
**A.** Its value is “high levels of glucuronidation”.

**Q.** And the Km at 1 h (UGT1A8; human, pH 7.5)?
**A.** Its Km at 1 h is 1900 ± 100 µM.

**Q.** And the “glucuronidation activity against SAHA (screen)” value (UGT1A5)?
**A.** The value was “No detectable glucuronidation activity”.

**Q.** And the “glucuronidation activity against SAHA (screen)” value (UGT2B15)?
**A.** Its value is “No detectable glucuronidation activity”.

**Q.** And the apparent terminal half-life [3]?
**A.** Its apparent terminal half-life is ~ 1.8 hours.
